PubChem BioAssay (NCI)
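Five compound concentrations were applied to cells in 96-well plates for 48 hours; endpoints were derived by simple linear interpolation of the resulting dose-response curve. The concentration for 50% growth inhibition is given as GI50. TGI denotes the concentration required for complete inhibition of growth.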

Columns and labels:
Experiment in all cases: NCI tumour cell line growth inhibition, 48 h
[1] = system: BT-549 breast
[2] = system: CCRF-CEM leukemia
[3] = system: NCI-H460 lung
[4] = system: OVCAR-8 ovarian
[5] = system: U251 CNS
[6] = system: MDA-MB-435
[7] = system: SF-295 CNS
[8] = system: RPMI-8226 leukemia
[9] = system: PC-3 prostate
[10] = system: SNB-19 CNS
[11] = system: HL-60(TB) leukemia
[12] = system: HCT-116 colon
[13] = system: IGROV1 ovarian
[14] = system: T-47D breast
[15] = system: SK-OV-3 ovarian
[16] = system: HOP-62 NSCLC
[17] = system: SR leukemia
[18] = system: MCF7 breast
[19] = system: K-562 leukemia
[20] = system: A549 NSCLC
[21] = system: NCI-H522 lung
[22] = system: M14 melanoma
[23] = system: LOX IMVI melanoma
[24] = system: CAKI-1 renal
[25] = system: UACC-62 melanoma
[26] = system: SNB-75 CNS
[27] = system: EKVX NSCLC
[28] = system: UO-31 renal
[29] = system: UACC-257 melanoma
[30] = system: NCI-H23 lung
[31] = system: HOP-92 NSCLC
[32] = system: NCI/ADR-RES ovarian
[33] = system: A498 renal
[34] = system: 786-0 renal
[35] = system: ACHN renal
[36] = system: MOLT-4 leukemia
[37] = system: OVCAR-3 ovarian
[38] = system: HS 578T breast
[39] = system: SF-539 CNS
[40] = system: MDA-MB-231 breast
[41] = system: SF-268 CNS
[42] = system: HT29 colon
[43] = system: KM12 colon
[44] = system: NCI-H226 lung
[45] = system: TK-10 renal
[46] = system: SW-620 colon
[47] = system: MALME-3M melanoma
[48] = system: HCC-2998 colon
[49] = system: RXF 393 renal
[50] = system: HCT-15 colon
[51] = system: SK-MEL-2 melanoma
[52] = system: SK-MEL-5 melanoma
[53] = system: COLO 205 colon
[54] = system: OVCAR-5 ovarian
[55] = system: SK-MEL-28 melanoma
[56] = system: OVCAR-4 ovarian
[57] = system: DU-145 prostate
[58] = system: SN12C renal

## COc1ccccc1CNCCCN1C(=O)c2ccc3c4c(ccc(c24)C1=O)C(=O)N(CCCNCCCN)C3=O
[1]
  GI50: 1440 nM
  TGI: 3810 nM
[2]
  GI50: 185 nM
  TGI: 4130 nM
[3]
  GI50: 146 nM
  TGI: 1410 nM
[4]
  GI50: 73.5 nM
  TGI: 2830 nM
[5]
  GI50: 106 nM
  TGI: 1620 nM
[6]
  GI50: 570 nM
  TGI: 2720 nM
[7]
  GI50: 450 nM
  TGI: 4610 nM
[8]
  GI50: 581 nM
  TGI: 4880 nM
[9]
  GI50: 653 nM
  TGI: 4610 nM
[10]
  GI50: 605 nM
  TGI: 4050 nM
[11]
  GI50: 744 nM
  TGI: 2780 nM
[12]
  GI50: 136 nM
  TGI: 3040 nM
[13]
  GI50: 272 nM
  TGI: 2720 nM
[14]
  GI50: 791 nM
  TGI: 3080 nM
[15]
  GI50: 1010 nM
  TGI: 4660 nM
[16]
  GI50: 444 nM
  TGI: 3340 nM
[17]
  GI50: 27.3 nM
  TGI: 9200 nM
[18]
  GI50: 123 nM
  TGI: 2430 nM
[19]
  GI50: 216 nM
  TGI: 3760 nM
[20]
  GI50: 130 nM
  TGI: 2130 nM
[21]
  GI50: 471 nM
  TGI: 2310 nM
[22]
  GI50: 972 nM
  TGI: 2710 nM
[23]
  GI50: 232 nM
  TGI: 1920 nM
[24]
  GI50: 1110 nM
  TGI: 5770 nM
[25]
  GI50: 653 nM
  TGI: 2170 nM
[26]
  GI50: 1290 nM
  TGI: 3290 nM
[27]
  GI50: 1020 nM
  TGI: 2990 nM
[28]
  GI50: 744 nM
  TGI: 3080 nM
[29]
  GI50: 607 nM
  TGI: 1980 nM
[30]
  GI50: 310 nM
  TGI: 2550 nM
[31]
  GI50: 971 nM
  TGI: 4880 nM
[32]
  GI50: 1160 nM
  TGI: 5710 nM
[33]
  GI50: 342 nM
  TGI: 2150 nM
[34]
  GI50: 712 nM
  TGI: 7180 nM
[35]
  GI50: 526 nM
  TGI: 10300 nM
[36]
  GI50: 182 nM
  TGI: 1990 nM
[37]
  GI50: 324 nM
  TGI: 1420 nM
[38]
  GI50: 1200 nM
  TGI: 5820 nM
[39]
  GI50: 968 nM
  TGI: 2820 nM
[40]
  GI50: 1410 nM
  TGI: 9720 nM
[41]
  GI50: 410 nM
  TGI: 6370 nM
[42]
  GI50: 159 nM
  TGI: 1540 nM
[43]
  GI50: 705 nM
  TGI: 4140 nM
[44]
  GI50: 746 nM
  TGI: 3200 nM
[45]
  GI50: 1570 nM
  TGI: 6360 nM
[46]
  GI50: 105 nM
  TGI: 1790 nM
[47]
  GI50: 898 nM
  TGI: 2200 nM
[48]
  GI50: 350 nM
  TGI: 1980 nM
[49]
  GI50: 246 nM
  TGI: 1930 nM
[50]
  GI50: 886 nM
  TGI: 3760 nM
[51]
  GI50: 907 nM
  TGI: 3030 nM
[52]
  GI50: 482 nM
  TGI: 1820 nM
[53]
  GI50: 456 nM
  TGI: 1850 nM
[54]
  GI50: 1410 nM
  TGI: 7360 nM
[55]
  GI50: 740 nM
  TGI: 2700 nM
[56]
  GI50: 847 nM
  TGI: 2670 nM
[57]
  GI50: 630 nM
  TGI: 2390 nM

## COC(=O)CCC/C=C\C[C@H]1C=CC(=O)/C1=C/C[C@@H](O)C/C=C\CC(F)(F)F
[1]
  GI50: 2120 nM
  TGI: 5370 nM
[2]
  GI50: 345 nM
  TGI: 5270 nM
[3]
  GI50: 3040 nM
  TGI: 10600 nM
[4]
  GI50: 3300 nM
  TGI: 13400 nM
[5]
  GI50: 1790 nM
  TGI: 4320 nM
[6]
  GI50: 2050 nM
  TGI: 10600 nM
[7]
  GI50: 2510 nM
  TGI: 5820 nM
[8]
  GI50: 1260 nM
  TGI: 7900 nM
[9]
  GI50: 2790 nM
  TGI: 7310 nM
[10]
  GI50: 2990 nM
  TGI: 14200 nM
[11]
  GI50: 1930 nM
  TGI: 7790 nM
[12]
  GI50: 1260 nM
  TGI: 2750 nM
[13]
  GI50: 2780 nM
  TGI: 7600 nM
[14]
  GI50: 3060 nM
  TGI: 16300 nM
[15]
  GI50: 5550 nM
  TGI: 16500 nM
[16]
  GI50: 1890 nM
  TGI: 5160 nM
[17]
  GI50: 384 nM
  TGI: 5440 nM
[18]
  GI50: 393 nM
  TGI: 10300 nM
[19]
  GI50: 789 nM
  TGI: 28300 nM
[20]
  GI50: 2910 nM
  TGI: 8730 nM
[21]
  GI50: 1060 nM
  TGI: 2570 nM
[22]
  GI50: 1500 nM
  TGI: 4390 nM
[23]
  GI50: 243 nM
  TGI: 668 nM
[24]
  GI50: 4070 nM
  TGI: 14800 nM
[25]
  GI50: 1200 nM
  TGI: 3640 nM
[26]
  GI50: 12400 nM
  TGI: 29300 nM
[27]
  GI50: 4040 nM
  TGI: 14600 nM
[28]
  GI50: 1700 nM
  TGI: 3360 nM
[29]
  GI50: 2540 nM
  TGI: 7820 nM
[30]
  GI50: 1900 nM
  TGI: 4160 nM
[31]
  GI50: 3270 nM
  TGI: 7880 nM
[32]
  GI50: 2320 nM
  TGI: 8330 nM
[33]
  GI50: 2470 nM
  TGI: 4570 nM
[34]
  GI50: 1850 nM
  TGI: 3570 nM
[35]
  GI50: 1950 nM
  TGI: 3970 nM
[36]
  GI50: 773 nM
  TGI: 4220 nM
[37]
  GI50: 1310 nM
  TGI: 3490 nM
[38]
  GI50: 8980 nM
  TGI: 70300 nM
[39]
  GI50: 3240 nM
  TGI: 9090 nM
[40]
  GI50: 2720 nM
  TGI: 7410 nM
[41]
  GI50: 2840 nM
  TGI: 13800 nM
[42]
  GI50: 1890 nM
  TGI: 4490 nM
[43]
  GI50: 1970 nM
  TGI: 5650 nM
[44]
  GI50: 2080 nM
  TGI: 4100 nM
[45]
  GI50: 3220 nM
  TGI: 10800 nM
[46]
  GI50: 1890 nM
  TGI: 12400 nM
[47]
  GI50: 2390 nM
  TGI: 7030 nM
[48]
  GI50: 2000 nM
  TGI: 3500 nM
[58]
  GI50: 2530 nM
  TGI: 7380 nM
[49]
  GI50: 1980 nM
  TGI: 3660 nM
[50]
  GI50: 1070 nM
  TGI: 3290 nM
[51]
  GI50: 2550 nM
  TGI: 7530 nM
[52]
  GI50: 1640 nM
  TGI: 3050 nM
[53]
  GI50: 2030 nM
  TGI: 4580 nM
[54]
  GI50: 3420 nM
  TGI: 9650 nM
[55]
  GI50: 2080 nM
  TGI: 4770 nM
[56]
  GI50: 5090 nM
  TGI: 18600 nM
[57]
  GI50: 3890 nM
  TGI: 14700 nM
